Reference: PubChem BioAssay (NCI)
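Dose response: 5 concentrations. Exposure: 48 h. Format: 96-well plates. Endpoint: linear interpolation; highest concentration if not reached. TGI: total growth inhibition.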

Assays:
Experiment in all cases: inhibition of tumour cell growth, NCI panel, 48 h
DU-145 prostate = tested on: DU-145 prostate
MDA-N = tested on: MDA-N
HCC-2998 colon = tested on: HCC-2998 colon
NCI/ADR-RES ovarian = tested on: NCI/ADR-RES ovarian
SR leukemia = tested on: SR leukemia
OVCAR-8 ovarian = tested on: OVCAR-8 ovarian
K-562 leukemia = tested on: K-562 leukemia
UO-31 renal = tested on: UO-31 renal
HT29 colon = tested on: HT29 colon
SF-268 CNS = tested on: SF-268 CNS
MALME-3M melanoma = tested on: MALME-3M melanoma
NCI-H522 lung = tested on: NCI-H522 lung

Measured: TGI

CN1C2CC(=O)CC1[C@@H]1OC(c3ccccc3)O[C@H]21 (some centres not stated)
> 100 µM: all assays above
